{"source": "paper PMC2941991", "about": "(ACS chemical biology, 2009)", "biological_target": "T1, T877A full-length androgen receptor mutant (Homo sapiens, UniProt P10275, T878A)", "T1 sequence (P10275 1-920 T878A)": "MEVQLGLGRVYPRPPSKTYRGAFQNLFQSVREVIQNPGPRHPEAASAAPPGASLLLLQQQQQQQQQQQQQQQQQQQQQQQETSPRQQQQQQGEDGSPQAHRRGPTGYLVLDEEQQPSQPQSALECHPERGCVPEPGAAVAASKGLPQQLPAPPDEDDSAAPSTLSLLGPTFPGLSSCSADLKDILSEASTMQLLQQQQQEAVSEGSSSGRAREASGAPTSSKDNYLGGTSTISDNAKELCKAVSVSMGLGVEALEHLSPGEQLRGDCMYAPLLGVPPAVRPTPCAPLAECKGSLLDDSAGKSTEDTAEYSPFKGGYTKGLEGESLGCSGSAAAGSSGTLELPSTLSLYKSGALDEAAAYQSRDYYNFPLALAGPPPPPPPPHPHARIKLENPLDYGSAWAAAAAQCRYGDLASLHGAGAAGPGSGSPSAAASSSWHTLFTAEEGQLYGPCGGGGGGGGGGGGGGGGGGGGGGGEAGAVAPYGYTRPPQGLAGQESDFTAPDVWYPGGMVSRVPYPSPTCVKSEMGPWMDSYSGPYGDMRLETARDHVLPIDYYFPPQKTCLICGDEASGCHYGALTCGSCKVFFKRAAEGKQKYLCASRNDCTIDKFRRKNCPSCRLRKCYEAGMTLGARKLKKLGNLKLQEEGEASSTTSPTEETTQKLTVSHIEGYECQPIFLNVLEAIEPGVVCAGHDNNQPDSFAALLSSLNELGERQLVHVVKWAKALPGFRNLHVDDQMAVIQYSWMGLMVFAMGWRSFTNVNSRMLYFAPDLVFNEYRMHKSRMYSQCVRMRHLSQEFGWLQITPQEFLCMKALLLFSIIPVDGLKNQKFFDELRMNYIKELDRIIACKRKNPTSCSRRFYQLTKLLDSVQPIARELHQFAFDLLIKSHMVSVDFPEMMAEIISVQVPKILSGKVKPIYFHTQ", "assay": "Luciferase reporter gene assay, full-length AR with the LNCaP mutation", "assay_type": "cell-based", "data": [{"smiles": "CC(C)(O)C(=O)Nc1ccc([N+](=O)[O-])c(C(F)(F)F)c1", "note": "[OH-Flu, 2-hydroxyflutamide]", "values": [{"measurement": "Agonist or antagonist action on the AR T877A mutant", "value": "act as agonists"}]}]}
